These results are taken from patent publication US20250059205A1, “Heterocyclic Compounds and Methods of Use” (AMGEN INC., priority 2021, published 2025).

As a reminder, the IC50 is the concentration needed to halve the response being measured.

Experiment [1] addresses His-tagged KRAS G12D protein (Homo sapiens, UniProt P01116, G12D). Description: KRAS G12D TR-FRET Assay. The format is binding.
The target in experiment [2] is GDP-bound KRAS protein (aa 1-169), containing both G12D and C118A amino acid substitutions (Homo sapiens, UniProt P01116, C118A/G12D). Description: KRAS G12D Coupled Nucleotide Exchange Assay. The format is biochemical. Conditions: 2 h compound pre-incubation. As to the method: Following compound pre-incubation, purified SOS protein (aa 564-1049) and GTP (Roche 10106399001) were added to the assay wells and incubated for an additional 30 min. […] The assay plates were then read on a PerkinElmer EnVision Multilabel Reader, using AlphaScreen® technology, and data were analyzed using a 4-parameter logistic model to calculate IC50 values.

Experiment [3] concerns Phosphorylation of ERK1/2 in A-427 cells. Description: Phospho-ERK1/2 MSD Assay (A-427 cells). Format: cell-based. The note with it: Homo sapiens, A-427, 2 h, 2 h treatment, read-out: p-ERK (A427 cells) IC50. In a few lines:
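ERK1/2 phosphorylation measured by Meso Scale whole-cell lysate assay after A-427 cells were exposed to a titration of compound for 2 h at 37 °C.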

For experiment [4], the system named is Phosphorylation of ERK1/2 in AsPC-1 cells. Description: Phospho-ERK1/2 MSD Assay (AsPC-1 cells). The format is cell-based. Conditions: Homo sapiens, ASPC1, 2 h, 2 hours treatment, read-out: p-ERK (AsPC-1 cells) IC50. In a few lines: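 Read-out: MSD electrochemiluminescent detection of phosphorylated ERK1/2 in whole-cell lysates, fitted to a 4-parameter logistic curve for IC50. Prior to lysis, AsPC-1 cells (25,000 per well) received a 2 h compound dose-response at 37 °C.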

SMILES strings stand for the structures.

GDP-bound KRAS protein (aa 1-169), containing both G12D and C118A amino acid substitutions, sequence (P01116 1-169 isoform P01116-2 G12D/C118A): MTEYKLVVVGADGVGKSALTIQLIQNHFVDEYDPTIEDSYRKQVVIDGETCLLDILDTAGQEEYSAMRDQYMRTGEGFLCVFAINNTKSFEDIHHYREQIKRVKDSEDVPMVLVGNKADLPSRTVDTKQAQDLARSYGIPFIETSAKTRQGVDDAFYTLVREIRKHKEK
His-tagged KRAS G12D protein, sequence (P01116 1-188 isoform P01116-2 G12D): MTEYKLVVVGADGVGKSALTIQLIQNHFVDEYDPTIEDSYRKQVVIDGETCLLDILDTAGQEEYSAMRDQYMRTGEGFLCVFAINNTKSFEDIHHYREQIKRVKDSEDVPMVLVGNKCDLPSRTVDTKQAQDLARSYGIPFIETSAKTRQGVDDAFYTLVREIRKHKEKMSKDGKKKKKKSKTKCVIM

For the molecule `Cc1cc2[nH]ncc2c(-c2ccc3c(N4[C@@H]5CC[C@H]4CNC5)nc(OC[C@@]45CCCN4C[C@H](F)C5)nc3c2)c1Cl` [Example 37, 4-((1R,5S)-3,8-diazabicyclo[3.2. 1]octan-8-yl)-7-(5-chloro-6-methyl-1H-indazol-4-yl)-2-(((2R,7aS)-2-fluorotetrahydro-1H-pyrrolizin-7a(5H)-yl)methoxy) quinazoline], the IC50 is 193 nM in experiment [1], over 10000 nM in experiment [3] and 6700 nM in experiment [4]. The “Avg 2 h Coupled Exchange IC50” value in experiment [2] turned out to be 73 nM.
With `Cc1c(Cl)cc2[nH]ncc2c1-c1ccc2c(N3[C@@H]4CC[C@H]3CNC4)nc(OC[C@@]34CCCN3C[C@H](F)C4)nc2c1` [Example 38, 4-((1R,5S)-3,8-diazabicyclo[3.2. 1]octan-8-yl)-7-(6-chloro-5-methyl-1H-indazol-4-yl)-2-(((2R,7aS)-2-fluorotetrahydro-1H-pyrrolizin-7a(5H)-yl)methoxy) quinazoline], the IC50 in experiment [1] was 195 nM; in experiment [3] it was over 10000 nM; in experiment [4] it was 6310 nM. The “Avg 2 h Coupled Exchange IC50” value in experiment [2] is 42 nM.
In the same order, the values of `Cc1cc2[nH]ncc2c(-c2ccc3c(N4C[C@H]5CC[C@@H](C4)N5)nc(OC[C@@]45CCCN4C[C@H](F)C5)nc3c2)c1Cl` [Example 39, 4-((1R,5S)-3,8-diazabicyclo[3.2. 1]octan-3-yl)-7-(5-chloro-6-methyl-1H-indazol-4-yl)-2-(((2R,7aS)-2-fluorotetrahydro-1H-pyrrolizin-7a(5H)-yl)methoxy) quinazoline] are 20 nM, 569 nM, 1890 nM and 9 nM.
On to `Cc1c(Cl)cc2[nH]ncc2c1-c1ccc2c(N3C[C@H]4CC[C@@H](C3)N4)nc(OC[C@@]34CCCN3C[C@H](F)C4)nc2c1` [Example 40, 4-((1R,5S)-3,8-diazabicyclo[3.2. 1]octan-3-yl)-7-(6-chloro-5-methyl-1H-indazol-4-yl)-2-(((2R,7aS)-2-fluorotetrahydro-1H-pyrrolizin-7a(5H)-yl)methoxy) quinazoline], for which the IC50 is 11 nM in experiment [1], 686 nM in experiment [3] and 2390 nM in experiment [4]. In experiment [2], the “Avg 2 h Coupled Exchange IC50” value was 6 nM.
Turning to `Oc1cc(-c2ccc3c(N4C[C@H]5CC[C@@H](C4)N5)nc(OC[C@@]45CCCN4C[C@H](F)C5)nc3c2)c2ccccc2c1` [Example 41, 4-(4-((1R,5S)-3,8-diazabicyclo[3.2. 1]octan-3-yl)-2-(((2R,7aS)-2-fluorotetrahydro-1H-pyrrolizin-7a(5H)-yl)methoxy)quinazolin-7-yl)naphthalen-2-ol], the IC50 came to 2 nM in experiment [1], 74 nM in experiment [3] and 182 nM in experiment [4]. Also, in experiment [2], the “Avg 2 h Coupled Exchange IC50” value came out at 2 nM.
Consider `Oc1cc(-c2cc3nc(OC[C@@]45CCCN4C[C@H](F)C5)nc(N4C[C@H]5CC[C@@H](C4)N5)c3cc2F)c2ccccc2c1` [Example 42, 4-(4-((1R,5S)-3,8-diazabicyclo[3.2. 1]octan-3-yl)-6-fluoro-2-(((2R,7aS)-2-fluorotetrahydro-1H-pyrrolizin-7a(5H)-yl)methoxy)quinazolin-7-yl)naphthalen-2-ol], for which the half-inhibitory concentration (IC50) amounted to 3 nM in experiment [1], 77 nM in experiment [3] and 223 nM in experiment [4]. In addition, the “Avg 2 h Coupled Exchange IC50” value in experiment [2] was 3 nM.
On to `Oc1cc(-c2ccc3c(N4C[C@H]5CC[C@@H](C4)N5)nc(OC[C@]45CCCN4C[C@H](F)C5)nc3c2F)c2ccccc2c1` [Example 44, 4-(4-((1R,5S)-3,8-diazabicyclo[3.2. 1]octan-3-yl)-8-fluoro-2-(((2R,7aR)-2-fluorotetrahydro-1H-pyrrolizin-7a(5H)-yl)methoxy)quinazolin-7-yl)naphthalen-2-ol], for which the IC50 in experiment [1] is 2 nM; in experiment [3] it was 19 nM; in experiment [4] it was 114 nM. Also, the “Avg 2 h Coupled Exchange IC50” value in experiment [2] is 2 nM.
For the molecule `Oc1cc(-c2ccc3c(N4C[C@@H]5CC[C@H]4CN5)nc(OC[C@@]45CCCN4C[C@H](F)C5)nc3c2F)c2ccccc2c1` [Example 45, 4-(4-((1S,4S)-2,5-diazabicyclo[2.2. 2]octan-2-yl)-8-fluoro-2-(((2R,7aS)-2-fluorotetrahydro-1H-pyrrolizin-7a(5H)-yl)methoxy)quinazolin-7-yl)naphthalen-2-ol], the figures for the IC50 in experiment [1], in experiment [3] and in experiment [4] were 4 nM, 25 nM and 190 nM, respectively. The “Avg 2 h Coupled Exchange IC50” value in experiment [2] amounted to 2 nM.
As for `Oc1cc(-c2ccc3c(N4C[C@H]5CC[C@@H](C4)N5)nc(OC[C@@]45CCCN4C[C@H](F)C5)nc3c2F)c2ccccc2c1` [Example 46, 4-(4-((1R,5S)-3,8-diazabicyclo[3.2. 1]octan-3-yl)-8-fluoro-2-(((2R,7aS)-2-fluorotetrahydro-1H-pyrrolizin-7a(5H)-yl)methoxy)quinazolin-7-yl)naphthalen-2-ol], the IC50 in experiment [1] was 2 nM; in experiment [3] it was 6 nM; in experiment [4], 39 nM. Moreover, the “Avg 2 h Coupled Exchange IC50” value in experiment [2] came to 2 nM.
As to `Oc1cc(-c2c(F)cc3c(N4C[C@@H]5CC[C@H]4CN5)nc(OC[C@@]45CCCN4C[C@H](F)C5)nc3c2F)c2ccccc2c1` [Example 48, 4-(4-((1S,4S)-2,5-diazabicyclo[2.2. 2]octan-2-yl)-6,8-difluoro-2-(((2R,7aS)-2-fluorotetrahydro-1H-pyrrolizin-7a(5H)-yl)methoxy)quinazolin-7-yl)naphthalen-2-ol], the 50% inhibitory concentration (IC50) in experiment [1] amounted to 4 nM; in experiment [3], 43 nM; in experiment [4] it was 157 nM. Further, the “Avg 2 h Coupled Exchange IC50” value in experiment [2] amounted to 4 nM.
As to `Oc1cc(-c2c(F)cc3c(N4C[C@@H]5C[C@H]4CN5)nc(OC[C@@]45CCCN4C[C@H](F)C5)nc3c2F)c2ccccc2c1` [Example 49, 4-(4-((1S,4S)-2,5-diazabicyclo[2.2. 1]heptan-2-yl)-6,8-difluoro-2-(((2R,7aS)-2-fluorotetrahydro-1H-pyrrolizin-7a(5H)-yl)methoxy)quinazolin-7-yl)naphthalen-2-ol], the IC50 in experiment [1] stood at 18 nM; in experiment [3], 652 nM; in experiment [4], 3600 nM. Besides, the “Avg 2 h Coupled Exchange IC50” value in experiment [2] is 9 nM.
Taken in the same sequence, the figures for `Oc1cc(-c2ccc3c(N4C[C@@H]5C[C@H]4CN5)nc(OC[C@@]45CCCN4C[C@H](F)C5)nc3c2F)c2ccccc2c1` [Example 50, 4-(4-((1S,4S)-2,5-diazabicyclo[2.2. 1]heptan-2-yl)-8-fluoro-2-(((2R,7aS)-2-fluorotetrahydro-1H-pyrrolizin-7a(5H)-yl)methoxy)quinazolin-7-yl)naphthalen-2-ol] were 11 nM, 1010 nM, 4470 nM and 7 nM.
As to `Oc1cc(-c2c(Cl)cc3c(N4C[C@H]5CC[C@@H](C4)N5)nc(OC[C@]45CCCN4C[C@H](F)C5)nc3c2F)c2ccccc2c1` [Example 51, 4-(4-((1R,5S)-3,8-diazabicyclo[3.2. 1]octan-3-yl)-6-chloro-8-fluoro-2-(((2R,7aR)-2-fluorotetrahydro-1H-pyrrolizin-7a(5H)-yl)methoxy)quinazolin-7-yl)naphthalen-2-ol], the results for the IC50 in experiment [1], in experiment [3] and in experiment [4] were 3 nM, 136 nM and 185 nM, respectively. Besides, in experiment [2], the “Avg 2 h Coupled Exchange IC50” value worked out at 1 nM.
Taken in the same sequence, the figures for `Oc1cc(-c2c(Cl)cc3c(N4C[C@H]5CC[C@@H](C4)N5)nc(OC[C@@]45CCCN4C[C@H](F)C5)nc3c2F)c2ccccc2c1` [Example 52, 4-(4-((1R,5S)-3,8-diazabicyclo[3.2. 1]octan-3-yl)-6-chloro-8-fluoro-2-(((2R,7aS)-2-fluorotetrahydro-1H-pyrrolizin-7a(5H)-yl)methoxy)quinazolin-7-yl)naphthalen-2-ol] were 3 nM, 41 nM, 107 nM and 3 nM.
In the case of `Oc1cc(-c2cc3nc(OC[C@@]45CCCN4C[C@H](F)C5)nc(N4[C@@H]5CC[C@H]4CNC5)c3cc2F)c2ccccc2c1` [Example 53, 4-(4-((1R,5S)-3,8-diazabicyclo[3.2. 1]octan-8-yl)-6-fluoro-2-(((2R,7aS)-2-fluorotetrahydro-1H-pyrrolizin-7a(5H)-yl)methoxy)quinazolin-7-yl)naphthalen-2-ol], the figures for the 50% inhibitory concentration (IC50) in experiment [1], in experiment [3] and in experiment [4] were 16 nM, 608 nM and 919 nM, respectively. In addition, the “Avg 2 h Coupled Exchange IC50” value in experiment [2] came out at 3 nM.
Regarding `CCc1cccc2cccc(-c3ccc4c(N5C[C@H]6CC[C@@H](C5)N6)nc(OC[C@@]56CCCN5C[C@H](F)C6)nc4c3F)c12` [Example 54, 4-((1R,5S)-3,8-diazabicyclo[3.2. 1]octan-3-yl)-7-(8-ethylnaphthalen-1-yl)-8-fluoro-2-(((2R,7aS)-2-fluorotetrahydro-1H-pyrrolizin-7a(5H)-yl)methoxy) quinazoline], the IC50 in experiment [1] is 4 nM; in experiment [3], 795 nM; in experiment [4], 1220 nM. Also, the “Avg 2 h Coupled Exchange IC50” value in experiment [2] amounted to 3 nM.
